# Data as given in PubChem BioAssay (NCI).
#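 The concentration for 50% growth inhibition is given as GI50. TGI: concentration producing complete growth inhibition.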
# Tests used:
# Test in all cases: growth of human tumour cells (NCI), 384-well format
# CCRF-CEM leukemia = test system: CCRF-CEM leukemia
# DU-145 prostate = test system: DU-145 prostate
# A549 NSCLC = test system: A549 NSCLC
# OVCAR-3 ovarian = test system: OVCAR-3 ovarian
# OVCAR-4 ovarian = test system: OVCAR-4 ovarian
# MDA-MB-435 melanoma = test system: MDA-MB-435 melanoma
# ACHN renal = test system: ACHN renal
# MDA-MB-231 breast = test system: MDA-MB-231 breast
# SN12C renal = test system: SN12C renal
# TK-10 renal = test system: TK-10 renal
# NCI-H322M lung = test system: NCI-H322M lung
# NCI-H23 lung = test system: NCI-H23 lung
# MDA-MB-468 breast = test system: MDA-MB-468 breast
# NCI/ADR-RES ovarian = test system: NCI/ADR-RES ovarian
# SF-539 CNS = test system: SF-539 CNS
# OVCAR-8 ovarian = test system: OVCAR-8 ovarian
# A498 renal = test system: A498 renal
# CAKI-1 renal = test system: CAKI-1 renal
# RPMI-8226 leukemia = test system: RPMI-8226 leukemia
# SF-295 CNS = test system: SF-295 CNS
# MALME-3M melanoma = test system: MALME-3M melanoma
# SNB-19 CNS = test system: SNB-19 CNS
# SK-MEL-2 melanoma = test system: SK-MEL-2 melanoma
# HCT-116 colon = test system: HCT-116 colon
# K-562 leukemia = test system: K-562 leukemia
# MOLT-4 leukemia = test system: MOLT-4 leukemia
# HT29 colon = test system: HT29 colon
# SK-OV-3 ovarian = test system: SK-OV-3 ovarian
# SW-620 colon = test system: SW-620 colon
# HCT-15 colon = test system: HCT-15 colon
# IGROV1 ovarian = test system: IGROV1 ovarian
# UO-31 renal = test system: UO-31 renal
# SK-MEL-28 melanoma = test system: SK-MEL-28 melanoma
# NCI-H226 lung = test system: NCI-H226 lung
# OVCAR-5 ovarian = test system: OVCAR-5 ovarian
# NCI-H460 NSCLC = test system: NCI-H460 NSCLC
# UACC-257 melanoma = test system: UACC-257 melanoma
# HL-60(TB) leukemia = test system: HL-60(TB) leukemia
# SR leukemia = test system: SR leukemia
# U251 glioblastoma = test system: U251 glioblastoma
# NCI-H522 lung = test system: NCI-H522 lung
# HS 578T breast = test system: HS 578T breast
# SNB-75 CNS = test system: SNB-75 CNS
# HOP-92 NSCLC = test system: HOP-92 NSCLC
# UACC-62 melanoma = test system: UACC-62 melanoma
# LOX IMVI melanoma = test system: LOX IMVI melanoma
# EKVX NSCLC = test system: EKVX NSCLC
smiles,measurement,setting,value
Cc1c(Br)c(Br)c2c3c1nc(N1CCNCC1)n3CCC2,GI50,CCRF-CEM leukemia,0.885 µM
same,TGI,CCRF-CEM leukemia,2.17 µM
same,GI50,DU-145 prostate,1.67 µM
same,TGI,DU-145 prostate,3.12 µM
same,GI50,A549 NSCLC,1.75 µM
same,TGI,A549 NSCLC,3.35 µM
same,GI50,OVCAR-3 ovarian,1.42 µM
same,TGI,OVCAR-3 ovarian,2.74 µM
same,GI50,OVCAR-4 ovarian,1.77 µM
same,TGI,OVCAR-4 ovarian,3.51 µM
same,GI50,MDA-MB-435 melanoma,1.85 µM
same,TGI,MDA-MB-435 melanoma,3.27 µM
same,GI50,ACHN renal,1.37 µM
same,TGI,ACHN renal,2.73 µM
same,GI50,MDA-MB-231 breast,1.6 µM
same,TGI,MDA-MB-231 breast,3.24 µM
same,GI50,SN12C renal,1.64 µM
same,TGI,SN12C renal,3.02 µM
same,GI50,TK-10 renal,1.51 µM
same,TGI,TK-10 renal,2.88 µM
same,GI50,NCI-H322M lung,1.73 µM
same,TGI,NCI-H322M lung,3.42 µM
same,GI50,NCI-H23 lung,1.66 µM
same,TGI,NCI-H23 lung,3.09 µM
same,GI50,MDA-MB-468 breast,1.15 µM
same,TGI,MDA-MB-468 breast,2.37 µM
same,GI50,NCI/ADR-RES ovarian,1.68 µM
same,TGI,NCI/ADR-RES ovarian,3.27 µM
same,GI50,SF-539 CNS,1.64 µM
same,TGI,SF-539 CNS,3.01 µM
same,GI50,OVCAR-8 ovarian,1.47 µM
same,TGI,OVCAR-8 ovarian,2.85 µM
same,GI50,A498 renal,0.792 µM
same,TGI,A498 renal,2.07 µM
same,GI50,CAKI-1 renal,1.59 µM
same,TGI,CAKI-1 renal,2.99 µM
same,GI50,RPMI-8226 leukemia,0.81 µM
same,TGI,RPMI-8226 leukemia,2.27 µM
same,GI50,SF-295 CNS,1.69 µM
same,TGI,SF-295 CNS,3.1 µM
same,GI50,MALME-3M melanoma,1.42 µM
same,TGI,MALME-3M melanoma,2.73 µM
same,GI50,SNB-19 CNS,1.75 µM
same,TGI,SNB-19 CNS,3.24 µM
same,GI50,SK-MEL-2 melanoma,1.38 µM
same,TGI,SK-MEL-2 melanoma,2.68 µM
same,GI50,HCT-116 colon,1.37 µM
same,TGI,HCT-116 colon,2.7 µM
same,GI50,K-562 leukemia,1.52 µM
same,TGI,K-562 leukemia,2.89 µM
same,GI50,MOLT-4 leukemia,1.23 µM
same,TGI,MOLT-4 leukemia,2.48 µM
same,GI50,HT29 colon,1.62 µM
same,TGI,HT29 colon,3.06 µM
same,GI50,SK-OV-3 ovarian,1.36 µM
same,TGI,SK-OV-3 ovarian,2.74 µM
same,GI50,SW-620 colon,1.25 µM
same,TGI,SW-620 colon,2.51 µM
same,GI50,HCT-15 colon,1.6 µM
same,TGI,HCT-15 colon,2.98 µM
same,GI50,IGROV1 ovarian,1.31 µM
same,TGI,IGROV1 ovarian,2.61 µM
same,GI50,UO-31 renal,1.45 µM
same,TGI,UO-31 renal,2.78 µM
same,GI50,SK-MEL-28 melanoma,1.59 µM
same,TGI,SK-MEL-28 melanoma,2.95 µM
same,GI50,NCI-H226 lung,1.2 µM
same,TGI,NCI-H226 lung,2.62 µM
same,GI50,OVCAR-5 ovarian,1.74 µM
same,TGI,OVCAR-5 ovarian,3.24 µM
same,GI50,NCI-H460 NSCLC,1.39 µM
same,TGI,NCI-H460 NSCLC,2.73 µM
same,GI50,UACC-257 melanoma,1.62 µM
same,TGI,UACC-257 melanoma,2.99 µM
same,GI50,HL-60(TB) leukemia,0.49 µM
same,TGI,HL-60(TB) leukemia,0.998 µM
same,GI50,SR leukemia,1.03 µM
same,TGI,SR leukemia,2.24 µM
same,GI50,U251 glioblastoma,1.66 µM
same,TGI,U251 glioblastoma,3.04 µM
same,GI50,NCI-H522 lung,0.347 µM
same,TGI,NCI-H522 lung,1.8 µM
same,GI50,HS 578T breast,1.87 µM
same,TGI,HS 578T breast,3.28 µM
same,GI50,SNB-75 CNS,1.97 µM
same,TGI,SNB-75 CNS,3.4 µM
same,GI50,HOP-92 NSCLC,1.75 µM
same,TGI,HOP-92 NSCLC,3.3 µM
same,GI50,UACC-62 melanoma,1.48 µM
same,TGI,UACC-62 melanoma,2.82 µM
same,GI50,LOX IMVI melanoma,1.49 µM
same,TGI,LOX IMVI melanoma,2.84 µM
same,GI50,EKVX NSCLC,1.57 µM
same,TGI,EKVX NSCLC,2.95 µM
CN1C(=O)[C@@H](CC2CCCC2)N(C2CCCC2)c2nc(Nc3cc(Cl)c(O)c(Cl)c3)ncc21,GI50,CCRF-CEM leukemia,3.05 µM
same,TGI,CCRF-CEM leukemia,8.14 µM
same,GI50,DU-145 prostate,6.56 µM
same,TGI,DU-145 prostate,64.7 µM
same,GI50,A549 NSCLC,4.89 µM
same,TGI,A549 NSCLC,70.7 µM
same,GI50,OVCAR-3 ovarian,4.55 µM
same,TGI,OVCAR-3 ovarian,15.8 µM
same,GI50,OVCAR-4 ovarian,5.33 µM
same,TGI,OVCAR-4 ovarian,37.1 µM
same,GI50,MDA-MB-435 melanoma,7.55 µM
same,TGI,MDA-MB-435 melanoma,> 100 µM
same,GI50,ACHN renal,6.38 µM
same,TGI,ACHN renal,26.2 µM
same,GI50,MDA-MB-231 breast,7.5 µM
same,TGI,MDA-MB-231 breast,> 100 µM
same,GI50,SN12C renal,10.4 µM
same,TGI,SN12C renal,> 100 µM
same,GI50,TK-10 renal,3.69 µM
same,TGI,TK-10 renal,20.1 µM
same,GI50,NCI-H322M lung,15.4 µM
same,TGI,NCI-H322M lung,97.8 µM
same,GI50,NCI-H23 lung,4.5 µM
same,TGI,NCI-H23 lung,35 µM
same,GI50,MDA-MB-468 breast,2.89 µM
same,TGI,MDA-MB-468 breast,8.38 µM
same,GI50,NCI/ADR-RES ovarian,3.46 µM
same,TGI,NCI/ADR-RES ovarian,26.7 µM
same,GI50,SF-539 CNS,8.81 µM
same,TGI,SF-539 CNS,27.2 µM
same,GI50,OVCAR-8 ovarian,4.99 µM
same,TGI,OVCAR-8 ovarian,60.5 µM
same,GI50,A498 renal,10.1 µM
same,TGI,A498 renal,27.1 µM
same,GI50,CAKI-1 renal,3.95 µM
same,TGI,CAKI-1 renal,22.2 µM
same,GI50,RPMI-8226 leukemia,1.8 µM
same,TGI,RPMI-8226 leukemia,4.17 µM
same,GI50,SF-295 CNS,13 µM
same,TGI,SF-295 CNS,29.3 µM
same,GI50,MALME-3M melanoma,4.41 µM
same,TGI,MALME-3M melanoma,29.9 µM
same,GI50,SNB-19 CNS,4.67 µM
same,TGI,SNB-19 CNS,> 100 µM
same,GI50,SK-MEL-2 melanoma,13.5 µM
same,TGI,SK-MEL-2 melanoma,28 µM
same,GI50,HCT-116 colon,3.9 µM
same,TGI,HCT-116 colon,13.7 µM
same,GI50,K-562 leukemia,3.57 µM
same,TGI,K-562 leukemia,15 µM
same,GI50,MOLT-4 leukemia,1.67 µM
same,TGI,MOLT-4 leukemia,3.06 µM
same,GI50,HT29 colon,35.6 µM
same,TGI,HT29 colon,> 100 µM
same,GI50,SK-OV-3 ovarian,6.01 µM
same,TGI,SK-OV-3 ovarian,45.2 µM
same,GI50,SW-620 colon,7.08 µM
same,TGI,SW-620 colon,40.7 µM
same,GI50,HCT-15 colon,4.62 µM
same,TGI,HCT-15 colon,21 µM
same,GI50,IGROV1 ovarian,9.94 µM
same,TGI,IGROV1 ovarian,39.6 µM
same,GI50,UO-31 renal,4.75 µM
same,TGI,UO-31 renal,23.2 µM
same,GI50,SK-MEL-28 melanoma,4.79 µM
same,TGI,SK-MEL-28 melanoma,> 100 µM
same,GI50,NCI-H226 lung,11.5 µM
same,TGI,NCI-H226 lung,31.7 µM
same,GI50,OVCAR-5 ovarian,14.8 µM
same,TGI,OVCAR-5 ovarian,> 100 µM
same,GI50,NCI-H460 NSCLC,6.22 µM
same,TGI,NCI-H460 NSCLC,19.4 µM
same,GI50,UACC-257 melanoma,6 µM
same,TGI,UACC-257 melanoma,25.4 µM
same,GI50,HL-60(TB) leukemia,1.75 µM
same,TGI,HL-60(TB) leukemia,3.17 µM
same,GI50,SR leukemia,2.87 µM
same,TGI,SR leukemia,8.95 µM
same,GI50,U251 glioblastoma,5.66 µM
same,TGI,U251 glioblastoma,19.1 µM
same,GI50,NCI-H522 lung,2.6 µM
same,TGI,NCI-H522 lung,8.91 µM
same,GI50,HS 578T breast,3.04 µM
same,TGI,HS 578T breast,23.4 µM
same,GI50,SNB-75 CNS,6.35 µM
same,TGI,SNB-75 CNS,49 µM
same,GI50,HOP-92 NSCLC,6.46 µM
same,TGI,HOP-92 NSCLC,42 µM
same,GI50,UACC-62 melanoma,8.84 µM
same,TGI,UACC-62 melanoma,23.2 µM
same,GI50,LOX IMVI melanoma,6.14 µM
same,TGI,LOX IMVI melanoma,19.5 µM
same,GI50,EKVX NSCLC,3.55 µM
same,TGI,EKVX NSCLC,20 µM
